Tested on: IL-17-SYK mediated CCL20 release, human keratinocytes
Test: Inhibition of IL17 mediated CCL20 release in keratinocytes
Type: cell-based
Conditions: single donor, n=3
Protocol: In FIG. 12, each bar represents mean and SEM for 3 replicates (n=3) of a single donor. FIG. 13 is a graph showing average weekly change in pruritus (NRS) for a placebo, and Compound 1 in the doses of 20 mg, 40 mg and 80 mg.

## COc1cc(Nc2ncc(F)c(Nc3ccc4c(n3)NC(=O)C(C)(C)O4)n2)cc(OC)c1OC [Tamatinib, reference compound]
  inhibition of IL-17-SYK mediated CCL20 release: unlike Tamatinib and Tofacitinib, Compound 1 inhibits
